Results on one compound are retold here after article PMC11809180, “RA-PR058, a novel ramalin derivative, reduces BACE1 expression and phosphorylation of tau in Alzheimer’s disease mouse models” (Animal Cells and Systems, 2025).

Molecules are shown by their SMILES. Like-named read-outs stand apart in the source and are kept apart here.

The subject of one series is BACE1. Kind of series: BACE1 expression in SH-SY5Y cells under H2O2 oxidative stress (western blot). The series is classed as cell-based, human. The conditions noted are these: 10 μM RA-PR058 24 hours, then 200 μM H2O2 4 hours, normalized with β-Actin, n = 4. As to the method: Human neuroblastoma cell line, SH-SY5Y were maintained in DMEM (Welgene) supplemented with 10% fetal bovine serum (FBS, Gibco) and 1% penicillin/streptomycin (Capricorn) at 37 °C in a humidified atmosphere containing 5% CO2. […] [2024]). Samples for western blot analysis were prepared as previously described (Gwon et al. [2012]). Cells were lysed with T-PER^TM Tissue Protein Extraction Reagent (Thermo Fisher Scientific) supplemented with protease/phosphatase inhibitor cocktail (Thermo Fisher Scientific) and incubated at 4 °C for 10 minutes. After incubation, lysed samples were centrifuged at 13,000 x rpm for 10 minutes at 4 °C and the supernatant were used for western blot analysis. The cortices and hippocampi tissues were homogenized using RIPA lysis buffer (Millipore) supplemented with protease/phosphatase inhibitor cocktail and incubated at 4 °C for 30 minutes. Following incubation, lysed tissues were centrifuged at 13,000 x rpm for 30 minutes at 4 °C and the supernatant were used for western blot analysis. Protein concentrations were measured using Pierce^TM BCA Protein Assay Kits (Thermo Fisher Scientific). Equal amounts of proteins were mixed with NuPAGE^TM LDS Sample Buffer (Invitrogen) and 5% 2-mercaptoethanol (Sigma) and then boiled at 95 °C for 5 minutes. […] Protein bands were quantified using ImageJ (NIH).

Series [1] deals with cytochrome P450 (CYP) isoforms (CYP1A2, CYP2C9, CYP2C19, CYP2D6, and CYP3A). Kind of series: Cytochrome P450 inhibition assay in human liver microsomes. The class given is in vitro ADME. As to conditions: 10 μM RA-PR058, 20 minutes 37 ℃, with NADPH regenerating system. As to the method: Inhibitory potentials of RA-PR058 on cytochrome P450 (CYP) isoforms (CYP1A2, CYP2C9, CYP2C19, CYP2D6, and CYP3A) were evaluated. This assay was conducted by SPMED Co., Ltd (Republic of Korea). Human liver microsomes were incubated at 37 ℃ for 20 minutes with phosphate buffer (pH 7.4), each CYP substrate (for CYP1A2: phenacetin, CYP2C9: diclofenac, CYP2C19: S-mephenytoin, CYP2D6: dextromethorphan, CYP3A: midazolam), and 10 μM of RA-PR058 in the presence of an NADPH regenerating system. The reaction was terminated by adding an acetonitrile solution containing an internal standard. Following reaction termination, samples were centrifuged, and the supernatant was injected into an LC-MS/MS system to analyze the metabolites of each substrate drug.
Background: Liver microsomes are a subcellular fraction often used to study metabolism.

A short description of series [2]: Plasma pharmacokinetics after IV and PO administration. The series is classed as in vivo. As to conditions: Sprague-Dawley, rat, 10 mg/kg, S.D. rats; for Cmax / half-life / AUC(0-t): in vivo; for AUC(0-t): read-out: AUC0-7h; for Tmax: plasma. As to the method:
Pharmacokinetic assays were conducted by NeuroVis (Republic of Korea). 10 mg/kg of RA-PR058 was administered to Sprague–Dawley rats by either oral administration route or intravenous injection route. Blood sampling was conducted using the BASi Culex ABS system. After cannulation, catheters were inserted into the jugular vein and the carotid artery of the rats, with the system programmed to collect 200 μL samples. Collected blood samples were centrifuged at 12,000 x rpm for 10 minutes to separate plasma, which was then immediately stored at −80 ℃. For brain pharmacokinetics, 10 mg/kg of RA-PR058 was administered orally to Sprague–Dawley rats, followed by collection of both blood and brain tissue. After collection, samples were mixed with the internal standard, ofloxacin, and centrifuged at 13,000 x rpm for 5 minutes at 4 ℃. The resulting supernatants were then combined with 50% methanol and analyzed by LC-MS/MS.

For `Cl.N[C@@H](CCC(=O)NNc1ccccc1F)C(F)F` [RA-PR058, (S)-4-amino-5,5-difluoro-N'-(2-fluorophenyl)pentanehydrazide hydrochloride], the “H2O2-induced increase in BACE1 expression” value in the series with BACE1 was “markedly attenuated”. The “Decrease in mean control activity of CYP isoforms” value in series [1] was determined as 12%. Moreover, in series [2] (IV), the Cmax worked out at 4260 ng/mL, the half-life is 63.5 min, the AUC(0-t) turned out to be 5700 ng·h/mL and the time to peak (Tmax) was 17.5 min. Further, in series [2] (PO), the Cmax worked out at 3480 ng/mL, the half-life was 94.5 min, the AUC(0-t) amounted to 6090 ng·h/mL and the Tmax amounted to 27.5 min.

By Cmax is commonly meant the highest concentration seen after dosing. For orientation: half-life means how long it takes for the measured level to halve. Low values mean fast loss, high ones slow loss. As usually defined, the Tmax is the time from dosing to the highest level.
